biological target: P2X7 (Homo sapiens (Human), UniProt Q99572); assay: P2X7 antagonism in human PBMCs (LPS + Bz-ATP induced IL-1β release, ELISA); type: cell-based; details: compound 1 μM, LPS 30 ng/ml, Bz-ATP 0.5 mM;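 further: PBMCs from donor human blood, with a further 1.5 h incubation of the cells in the assay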
Sequence (Q99572 whole entry): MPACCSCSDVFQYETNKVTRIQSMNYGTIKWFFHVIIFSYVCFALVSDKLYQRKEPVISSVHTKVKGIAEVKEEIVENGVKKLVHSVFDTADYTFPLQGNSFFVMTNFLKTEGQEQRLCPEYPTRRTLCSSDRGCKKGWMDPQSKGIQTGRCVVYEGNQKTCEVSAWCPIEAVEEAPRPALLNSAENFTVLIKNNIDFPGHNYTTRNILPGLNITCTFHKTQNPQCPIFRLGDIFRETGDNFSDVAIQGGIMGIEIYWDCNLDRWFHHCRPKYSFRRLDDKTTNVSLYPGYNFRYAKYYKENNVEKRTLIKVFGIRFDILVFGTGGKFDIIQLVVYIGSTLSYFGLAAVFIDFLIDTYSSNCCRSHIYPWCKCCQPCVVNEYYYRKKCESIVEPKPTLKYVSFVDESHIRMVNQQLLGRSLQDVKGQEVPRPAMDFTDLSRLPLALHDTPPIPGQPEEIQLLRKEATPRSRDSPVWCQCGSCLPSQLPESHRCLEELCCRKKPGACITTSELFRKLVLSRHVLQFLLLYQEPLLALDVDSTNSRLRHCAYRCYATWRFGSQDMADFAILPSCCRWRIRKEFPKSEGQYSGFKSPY

| PBMC 1 μM (% control) | Structure (SMILES) |
| --- | --- |
| 9.2 % control | O=C(c1cccc(Cl)c1Cl)N1CCc2c(-c3ccccc3)n[nH]c2C1 [Example 100, 6-[(2,3-Dichlorophenyl)carbonyl]-3-phenyl-4,5,6,7-tetrahydro-1H-pyrazolo[3,4-c]pyridine] |
| 15.7 % control | Cn1nc2c(c1-c1cccnc1)CCN(C(=O)c1cccc(Cl)c1Cl)C2 [Example 111, 6-[(2,3-Dichlorophenyl)carbonyl]-2-methyl-3-pyridin-3-yl-4,5,6,7-tetrahydro-2H-pyrazolo[3,4-c]pyridine] |

same assay, conditions: compound 10 μM, LPS 30 ng/ml, Bz-ATP 0.5 mM

| Structure (SMILES) | PBMC 10 μM (% control) |
| --- | --- |
| CC1Cc2c(nnn2-c2ccccn2)CN1C(=O)c1cccc(C(F)(F)F)c1Cl (centres unmarked) [Example 116, 5-{[2-Chloro-3-(trifluoromethyl)phenyl]carbonyl}-6-methyl-1-pyridin-2-yl-4,5,6,7-tetrahydro-1H-[1,2,3]triazolo[4,5-c]pyridine] | 45.3 % control |
| C[C@@H]1c2nnn(-c3cc(F)ccn3)c2CCN1C(=O)c1cccc(C(F)(F)F)c1Cl (single isomer, unassigned) [Example 148, (R*)-(2-Chloro-3-(trifluoromethyl)phenyl)(1-(4-fluoropyridin-2-yl)-4-methyl-6,7-dihydro-1H-[1,2,3]triazolo[4,5-c]pyridin-5(4H)-yl)methanone] | −9.6 % control |
| CC1c2ncn(-c3ncc(F)cn3)c2CCN1C(=O)c1cccc(C(F)(F)F)c1Cl (centres unmarked) [Example 22, (2-Chloro-3-(trifluoromethyl)phenyl)(1-(5-fluoropyrimidin-2-yl)-4-methyl-6,7-dihydro-1H-imidazo[4,5-c]pyridin-5(4H)-yl)methanone] | −15.9 % control |
| C[C@@H]1c2nnn(-c3cc[nH]n3)c2CCN1C(=O)c1cccc(C(F)(F)F)c1Cl (single isomer, unassigned) [Example 133, (R*)-(2-Chloro-3-(trifluoromethyl)phenyl)(4-methyl-1-(1H-pyrazol-5-yl)-6,7-dihydro-1H-[1,2,3]triazolo[4,5-c]pyridin-5(4H)-yl)methanone] | −0.2 % control |
| C[C@H]1c2nnn(-c3cc(F)ccn3)c2CCN1C(=O)c1cccc(C(F)(F)F)c1Cl (single isomer, unassigned) [Example 149, (S*)-(2-Chloro-3-(trifluoromethyl)phenyl)(1-(4-fluoropyridin-2-yl)-4-methyl-6,7-dihydro-1H-[1,2,3]triazolo[4,5-c]pyridin-5(4H)-yl)methanone] | 3.5 % control |
| CCc1nc2c(n1-c1ccccc1)CCN(C(=O)c1cccc(C(F)(F)F)c1Cl)C2C (centres unmarked) [Example 184, (2-Chloro-3-(trifluoromethyl)phenyl)(2-ethyl-4-methyl-1-phenyl-6,7-dihydro-1H-imidazo[4,5-c]pyridin-5(4H)-yl)methanone] | −0.7 % control |
| C[C@@H]1c2ncn(-c3ncc(F)cn3)c2CCN1C(=O)c1cccc(C(F)(F)F)c1Cl (single isomer, unassigned) [Example 193, (R*)-(2-Chloro-3-(trifluoromethyl)phenyl)(1-(5-fluoropyrimidin-2-yl)-4-methyl-6,7-dihydro-1H-imidazo[4,5-c]pyridin-5(4H)-yl)methanone] | 1.4 % control |

Further lines, results first:

| PBMC 10 μM (% control) | Structure (SMILES) |
| --- | --- |
| −12.8 % control | C[C@H]1c2ncn(-c3ncc(F)cn3)c2CCN1C(=O)c1cccc(C(F)(F)F)c1Cl (single isomer, unassigned) [Example 194, (S*)-(2-Chloro-3-(trifluoromethyl)phenyl)(1-(5-fluoropyrimidin-2-yl)-4-methyl-6,7-dihydro-1H-imidazo[4,5-c]pyridin-5(4H)-yl)methanone] |
| 5.8 % control | C[C@@H]1Cc2c(nnn2-c2ccc(F)cc2)[C@H](C)N1C(=O)c1cccc(C(F)(F)F)c1Cl [Example 286, (2-chloro-3-(trifluoromethyl)phenyl)((4S,6R)-1-(4-fluorophenyl)-4,6-dimethyl-6,7-dihydro-1H-[1,2,3]triazolo[4,5-c]pyridin-5(4H)-yl)methanone] |
| 2.7 % control | C[C@H]1Cc2c(nnn2-c2ncc(F)cn2)CN1C(=O)c1ccc(F)c(Cl)c1Cl (single isomer, unassigned) [Example 215, (6S*)-5-[(2,3-Dichloro-4-fluorophenyl)carbonyl]-1-(5-fluoropyrimidin-2-yl)-6-methyl-4,5,6,7-tetrahydro-1H-[1,2,3]triazolo[4,5-c]pyridine] |
| 8.8 % control | O=C(c1cccc(C(F)(F)F)c1Cl)N1CCc2c(ncn2-c2ccc(F)cn2)C1 [Example 315, (2-chloro-3-(trifluoromethyl)phenyl)(1-(5-fluoropyridin-2-yl)-6,7-dihydro-1H-imidazo[4,5-c]pyridin-5(4H)-yl)methanone] |
| 17.1 % control | C[C@H]1Cc2c(nnn2-c2ncc(F)cn2)CN1C(=O)c1cccc(Cl)c1Cl (single isomer, unassigned) [Example 205, (6S*)-5-[(2,3-Dichlorophenyl)carbonyl]-1-(5-fluoropyrimidin-2-yl)-6-methyl-4,5,6,7-tetrahydro-1H-[1,2,3]triazolo[4,5-c]pyridine] |
| 0.8 % control | CC1Cc2c(nnn2-c2cc[nH]n2)CN1C(=O)c1cccc(C(F)(F)F)c1Cl (centres unmarked) [Example 210, (2-chloro-3-(trifluoromethyl)phenyl)(6-methyl-1-(1H-pyrazol-3-yl)-6,7-dihydro-1H-[1,2,3]triazolo[4,5-c]pyridin-5(4H)-yl)methanone] |
| 60.8 % control | C[C@@H]1Cc2c(nnn2-c2ncc(F)cn2)CN1C(=O)c1ccc(Cl)c(F)c1Cl (single isomer, unassigned) [Example 217, (6R*)-5-[(2,4-Dichloro-3-fluorophenyl)carbonyl]-1-(5-fluoropyrimidin-2-yl)-6-methyl-4,5,6,7-tetrahydro-1H-[1,2,3]triazolo[4,5-c]pyridine] |
| 15.1 % control | C[C@H]1Cc2c(nnn2-c2ncc(F)cn2)CN1C(=O)c1cccc(C(F)(F)F)c1F [Example 220, (6S)-1-(5-Fluoropyrimidin-2-yl)-5-{[2-fluoro-3-(trifluoromethyl)phenyl]carbonyl}-6-methyl-4,5,6,7-tetrahydro-1H-[1,2,3]triazolo[4,5-c]pyridine] |
| 18.2 % control | C[C@@H]1Cc2c(nnn2-c2ccc(F)cc2)[C@@H](C)N1C(=O)c1cccc(C(F)(F)F)c1Cl [Example 284, (2-chloro-3-(trifluoromethyl)phenyl)((4R,6R)-1-(4-fluorophenyl)-4,6-dimethyl-6,7-dihydro-1H-[1,2,3]triazolo[4,5-c]pyridin-5(4H)-yl)methanone] |
| −3.5 % control | Cc1cccnc1-n1nnc2c1CCN(C(=O)c1cccc(C(F)(F)F)c1Cl)C2C (centres unmarked) [Example 259, (2-Chloro-3-(trifluoromethyl)phenyl)(4-methyl-1-(3-methylpyridin-2-yl)-6,7-dihydro-1H-[1,2,3]triazolo[4,5-c]pyridin-5(4H)-yl)methanone] |
| −8.9 % control | CC1Cc2c(nnn2-c2ccccc2)C(C)N1C(=O)c1cccc(C(F)(F)F)c1Cl (centres unmarked) [Example 240, (2-Chloro-3-(trifluoromethyl)phenyl)(4,6-dimethyl-1-phenyl-6,7-dihydro-1H-[1,2,3]triazolo[4,5-c]pyridin-5(4H)-yl)methanone] |

From patent US9464084B2, “P2X7 modulators” (Janssen Pharmaceutica NV, priority 2013, dated 2016)
